Results: ChEMBL document CHEMBL6103558, “The potential of MAO inhibitors as chemotherapeutics in cancer: A literature survey” (Eur J Med Chem, 2025)

Key:
LNCaP = assay: Antiproliferative activity against human LNCap cells assessed as reduction in cell viability incubated for 72 hrs by resazurin dye based assay; assay type: functional
[1] = target: T1, Amine oxidase [flavin-containing] A (Homo sapiens, UniProt P21397); assay: Binding affinity to human recombinant MAO-A assessed as inhibition constant by MAO-GloTM method
T1 sequence (P21397 whole entry): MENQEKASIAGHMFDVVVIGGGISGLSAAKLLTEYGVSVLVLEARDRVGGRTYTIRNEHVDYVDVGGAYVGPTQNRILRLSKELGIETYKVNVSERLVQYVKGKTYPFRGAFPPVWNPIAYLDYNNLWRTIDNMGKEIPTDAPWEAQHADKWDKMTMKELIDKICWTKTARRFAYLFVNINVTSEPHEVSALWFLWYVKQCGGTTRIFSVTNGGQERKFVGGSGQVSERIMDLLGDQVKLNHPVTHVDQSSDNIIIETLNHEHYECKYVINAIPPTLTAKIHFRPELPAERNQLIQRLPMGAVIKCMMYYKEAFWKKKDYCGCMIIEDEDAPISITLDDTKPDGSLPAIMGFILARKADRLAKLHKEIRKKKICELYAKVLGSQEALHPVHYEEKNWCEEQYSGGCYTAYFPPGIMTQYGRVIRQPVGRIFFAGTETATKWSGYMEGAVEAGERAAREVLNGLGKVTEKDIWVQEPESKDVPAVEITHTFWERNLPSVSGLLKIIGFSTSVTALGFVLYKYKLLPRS

HCT-116 [2] = assay: Anticancer activity against human HCT-116 cells assessed as reduction in cell growth by MTT assay; assay type: functional, cell-based
HCT-116 [3] = assay: Anti-migratory activity against human HCT116 cells assessed as reduction in cell migration at 0.05 uM incubated for 24 hrs by wound healing assay relative to control; assay type: functional; design: scale not given: the % may be the effect or the level left
SK-OV-3 = assay: Antiproliferative activity against human SK-OV-3 cells by MTT assay; assay type: functional, cell-based
HCT-116 [4] = assay: Antiproliferative activity against human HCT-116 cells by MTT assay; assay type: functional, cell-based
MCF7 = assay: Antiproliferative activity against human MCF7 cells by MTT assay; assay type: functional, cell-based
LN-229 = assay: Growth inhibition of human LN-229 cells incubated for 48 hrs by trypan blue exclusion assay; assay type: functional
[5] = target: T2, Amine oxidase [flavin-containing] B (Homo sapiens, UniProt P27338); assay: Inhibition of human MAO-B
T2 sequence (P27338 whole entry): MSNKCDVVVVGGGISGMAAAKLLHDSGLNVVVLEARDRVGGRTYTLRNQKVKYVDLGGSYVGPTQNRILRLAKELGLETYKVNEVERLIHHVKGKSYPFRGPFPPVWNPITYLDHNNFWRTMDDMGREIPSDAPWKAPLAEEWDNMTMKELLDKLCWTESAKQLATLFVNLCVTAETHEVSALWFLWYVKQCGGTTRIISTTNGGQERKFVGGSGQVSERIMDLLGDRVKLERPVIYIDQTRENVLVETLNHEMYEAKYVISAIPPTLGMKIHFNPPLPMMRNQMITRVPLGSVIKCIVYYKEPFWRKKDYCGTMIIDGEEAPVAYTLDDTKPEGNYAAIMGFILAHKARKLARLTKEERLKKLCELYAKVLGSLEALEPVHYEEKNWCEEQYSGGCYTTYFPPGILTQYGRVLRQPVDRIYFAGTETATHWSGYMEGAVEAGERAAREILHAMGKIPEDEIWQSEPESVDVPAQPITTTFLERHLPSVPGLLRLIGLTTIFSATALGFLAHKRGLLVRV

WiDr = assay: Antiproliferative activity against human WiDr cells; assay type: functional, cell-based
HBL-100 = assay: Antiproliferative activity against human HBL-100 cells; assay type: functional, cell-based
A549 = assay: Antiproliferative activity against human A549 cells; assay type: functional, cell-based
T47D = assay: Antiproliferative activity against human T47D cells; assay type: functional, cell-based
SW1573 = assay: Antiproliferative activity against human SW1573 cells; assay type: functional, cell-based
[6] = target: T1, Amine oxidase [flavin-containing] A; assay: Inhibition of MAO-A (unknown origin)
[7] = target: T2, Amine oxidase [flavin-containing] B; assay: Binding affinity to MAO-B (unknown origin) measured by MAO-GloTM method

With `O=c1cc(-c2ccccc2)oc2c(Cl)cc(Cl)cc12` the IC50 (LNCaP) was roughly 10 µM and the Ki [1] was 7.4 nM.
`O=C(Cn1cc(Cn2c(=O)c(Cc3ccccc3)nc3ccccc32)nn1)NNC(=S)Nc1ccccc1` showed an IC50 (HCT-116 [2]) of 7.85 µM and an Activity (HCT-116 [3]) of 75%.
For `CN1CCC2=C(C1)C(c1c[nH]c3ccc(Br)cc13)c1cc(Cl)ccc1O2` (centres undefined), the IC50 (SK-OV-3) was 4.83 µM, the IC50 (HCT-116 [4]) was 4.83 µM and the IC50 (MCF7) was 4.83 µM.
For `COc1ccccc1NCCCCCCC(=O)Nc1ccc(CCc2ccc(NC(=O)CCCCCCNc3ccccc3OC)cc2)cc1`, the GI50 (LN-229) was less than 1000 nM.
`C/C(=N\Nc1nc(-c2cccc([N+](=O)[O-])c2)cs1)c1ccsc1` showed an IC50 [5] of 2.5 nM.
`O=[N+]([O-])c1ccc(/C=N/Nc2nc(-c3ccccc3)c[se]2)cc1` showed an IC50 (WiDr) of 24 µM, an IC50 (HBL-100) of 24 µM and an IC50 (A549) of 24 µM. The IC50 (T47D) was 24 µM, the IC50 (SW1573) was 24 µM and the IC50 [6] was 7.2 µM.
Work on `C=C(CCCCCCNc1ccccc1OC)Nc1ccc(CCc2ccc(NC(=C)CCCCCCNc3ccccc3OC)cc2)cc1` yielded a Ki [7] of less than 1000 nM.
`C/C(=N\Nc1nc(-c2cccc([N+](=O)[O-])c2)cs1)c1cccs1` showed an IC50 [5] of 6.8 nM.
Work on `O=C(Cn1cc(Cn2c(=O)c(Cc3ccccc3)nc3ccccc32)nn1)N/N=C/c1cccnc1` yielded an IC50 (HCT-116 [2]) of 18 µM and an Activity (HCT-116 [3]) of 75%.
